Read-outs that look alike come from different tables or passages of the source. Residues, ends and D or L forms follow the SMILES beside them.
Legend:
Type in all cases: cell-based
Escherichia coli = conditions: 6 h
Experimental: (§1) Antimicrobial assays (for Examples 3 to 27) were carried out in 96-well tissue culture plates. Each well was incubated with a given microorganism (Escherichia coli, Staphylococcus epidermidis, Staphylococcus aureus, or Pseudomonas aeruginosa) suspended in LB medium (Examples 3-17), or TSB medium (Examples 18-27). Upon the addition of Magainin I or its substitution analogues, (dissolved in 1×PBS, pH 7.0) each well contained a final cell density of 1.0×10^6 colony forming units (CFU)/ml. The final peptide concentrations used were 100 μg/ml., 75.0 μg/ml, 50.0 μg/ml, 25 μg/ml, 12.5 μg/ml, 10 μg/ml, 5μg/ml, 2.5 μg/ml, and 1.25 μg/ml.
(§2) Addition of peptides to the wells was defined as time zero. At six hours, the plates were placed in a Titertek Multiskan apparatus and the O.D.620 determined. The plates as well as the initial innoculum were incubated at 37° C.
(§3) Five wells per plate contained media alone, while five others contained medium plus cells. These controls were used to eliminate the possibility of media contamination while providing a measure of uninhibited growth of the microorganisms.
(§4) The degree of peptide activity was determined by comparing the substitution analogues with uninhibited growth of the control cells over a six-hour period.

[1] = system: Staphylococcus epidermidis; conditions: 6 h
Experimental: as §1, §2, §3, §4

Pseudomonas aeruginosa = conditions: TSB medium, 6 h
Experimental: as §1, §2, §3, §4

Staphylococcus aureus = conditions: at 50 μg/ml peptide; LB medium; 6 h
Experimental: as §1, §2, §3, §4

[2] = at 10 μg/ml peptide, TSB medium
[3] = at 25 μg/ml peptide, TSB medium

CC[C@H](C)[C@H](NC(=O)CN)C(=O)NCC(=O)N[C@@H](CCCCN)C(=O)N[C@@H](CCCCN)C(=O)N[C@@H](CC(C)C)C(=O)N[C@@H](Cc1c[nH]cn1)C(=O)N[C@@H](CCCCN)C(=O)N[C@@H](CCCCN)C(=O)NCC(=O)N[C@@H](CCCCN)C(=O)N[C@@H](Cc1ccccc1)C(=O)NCC(=O)N[C@@H](CCCCN)C(=O)N[C@@H](Cc1ccccc1)C(=O)N[C@@H](CCCCN)C(=O)NCC(=O)N[C@@H](C)C(=O)N[C@H](C(=O)N[C@@H](CC(C)C)C(=O)N[C@@H](CCCCN)C(=O)N[C@@H](C)C(=O)O)[C@@H](C)CC [Example 8] (H-GIGKKLHKKGKFGKFKGAILKA-OH)
100%: % effective growth inhibition of E. coli (Escherichia coli; at 5 μg/ml peptide, LB medium) | % effective growth inhibition of E. coli (Escherichia coli; at 5 μg/ml peptide, TSB medium) | % effective growth inhibition of E. coli (Escherichia coli; [2]) | % effective growth inhibition of E. coli (Escherichia coli; at 25 μg/ml peptide, LB medium) | % effective growth inhibition of E. coli (Escherichia coli; [3]) | % effective growth inhibition of E. coli (Escherichia coli; at 75 μg/ml peptide, LB medium) | % effective growth inhibition of E. coli (Escherichia coli; at 100 μg/ml peptide, LB medium) | % effective growth inhibition of S. epidermidis ([1]; at 5 μg/ml peptide, TSB medium) | % effective growth inhibition of S. epidermidis [1, 2] | % effective growth inhibition of S. epidermidis [1, 3] | % effective growth inhibition of S. epidermidis ([1]; at 50 μg/ml peptide, LB medium) | % effective growth inhibition of S. epidermidis ([1]; at 75 μg/ml peptide, LB medium) | % effective growth inhibition of P. aeruginosa (Pseudomonas aeruginosa; at 5 μg/ml peptide) | % effective growth inhibition of P. aeruginosa (Pseudomonas aeruginosa; at 10 μg/ml peptide) | % effective growth inhibition of P. aeruginosa (Pseudomonas aeruginosa; at 25 μg/ml peptide)

GIGKFILHAAGKFGKAFVGIMKS (GIGKFLHAAGKFGKAFVGIMKS) [Magainin I, residue 19 deleted, residue 8 alanine]
100%: % effective growth inhibition of E. coli (Escherichia coli; at 2.5 μg/ml peptide, LB medium) | % effective growth inhibition of S. epidermidis ([1]; at 25 μg/ml peptide, LB medium) | % effective growth inhibition of S. aureus (Staphylococcus aureus)

Source: patent US5912231A, “Substitution analogues of magainin peptides” (priority 1994, dated 1999)
